According to the supplement of paper PMC8967900:

Tested on: HPB-ALL
Assay: selective drug sensitivity score (sDSS, relative to normal bone marrow) (sDSS (score)); higher = more potent and effective on the cell line relative to normal bone marrow cells
Settings: 72 h
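Note: ALL cell lines in 384-well plates, five doses spanning 10,000-fold, each plate scaled between vehicle and 100 µmol/L benzalkonium chloride controls, sDSS an adapted area-under-curve metric.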

| SMILES | selective drug sensitivity score |
| --- | --- |
| Oc1ncnc2[nH]ncc12 [Allopurinol] (top concentration 10000 nM) | 6.06 |
| CC(C)n1cnc2c(NCCc3ccc(O)cc3)nc(-c3csc4ccccc34)nc21 [StemRegenin_1] (top concentration 10000 nM) | 6.4 |
| C#Cc1cccc(Nc2ncnc3cc4c(cc23)OCCOCCOCCO4)c1 [Icotinib] (top concentration 10000 nM) | 0 |
| CN[C@@H](C)C(=O)N[C@H]1CN(C(=O)CC(C)C)CC[C@H]2CC[C@@H](C(=O)NC(c3ccccc3)c3ccccc3)N2C1=O [AT-406] (top concentration 10000 nM) | -1.26 |
| CC(C)(O)CC(=O)NCCn1ccc2ncnc(Nc3ccc(Oc4cccc(C(F)(F)F)c4)c(Cl)c3)c21 [TAK-285] (top concentration 2500 nM) | 0 |
| COc1cc(C)[nH]c(=O)c1CNC(=O)c1c(C)n([C@H](C)C2CCOCC2)c2ccccc12 [CPI-360] (top concentration 10000 nM) | 0 |
| Cc1cc2c(C(=O)NC[C@H](C)c3ccccc3)c(O)c(O)cc2c(O)c1-c1c(C)cc2c(C(=O)NC[C@H](C)c3ccccc3)c(O)c(O)cc2c1O [Sabutoclax] (top concentration 25000 nM) | 19.4 |
| CC(C)(C)C[C@@H]1N[C@@H](C(=O)N[C@H]2CC[C@H](O)CC2)[C@H](c2cccc(Cl)c2F)[C@]12C(=O)Nc1cc(Cl)ccc12 (top concentration 10000 nM) | -3.44 |
| C[C@@H]1C[C@H]2[C@@H]3CCC4=CC(=O)C=C[C@]4(C)[C@@]3(F)[C@@H](O)C[C@]2(C)[C@@]1(O)C(=O)CO [Dexamethasone] (top concentration 10000 nM) | 3.18 |

Tested on: KASUMI-2
Assay: as above
Settings: 72 h

| SMILES | selective drug sensitivity score |
| --- | --- |
| Nc1nc2cc(-c3ccc4ncc(C(=O)N5CCOCC5)n4c3)ccc2o1 [Serabelisib] (top concentration 10000 nM) | 2.96 |
| COc1cccc(-c2ccc(NC(=O)C3=C(C(=O)O)CCC3)c(F)c2)c1 [Vidofludimus] (top concentration 10000 nM) | 6.2 |
| Cc1cccc(-c2nn3c(c2-c2ccnc4ccc(C(N)=O)cc24)CCC3)n1 [Galunisertib] (top concentration 1000 nM) | 0 |
| COc1cc2c(N3CCN(C(=O)Nc4ccc(OC(C)C)cc4)CC3)ncnc2cc1OCCCN1CCCCC1 [Tandutinib] (top concentration 1000 nM) | 0 |
| Cc1c(F)cc(C(=O)NC2CC2)cc1-c1ccc(C(=O)NCC(C)(C)C)cn1 [Losmapimod] (top concentration 10000 nM) | -0.18 |
| Nc1nc(N)c2nc(-c3cccc(O)c3)c(-c3cccc(O)c3)nc2n1 [TG100-115] (top concentration 10000 nM) | -0.4 |
| C[C@]12CC[C@@H]3c4ccc(O)cc4C[C@@H](CCCCCCCCC[S+]([O-])CCCC(F)(F)C(F)(F)F)[C@H]3[C@@H]1CC[C@@H]2O (stereo not given in full) [Fulvestrant] (top concentration 1000 nM) | 0 |
| O=C(Nc1cccnc1)N1CCC(Cc2cccc(Oc3ccc(C(F)(F)F)cn3)c2)CC1 [PF-3845] (top concentration 10000 nM) | -0.24 |
| COc1cc2c(cc1OCCCN1CCCC1)N=C(N)C21CCC1 [A-366] (top concentration 25000 nM) | -1.84 |
| Oc1ncnc2[nH]ncc12 [Allopurinol] (top concentration 10000 nM) | -0.64 |
| CC(C)n1cnc2c(NCCc3ccc(O)cc3)nc(-c3csc4ccccc34)nc21 [StemRegenin_1] (top concentration 10000 nM) | -1.8 |
| C#Cc1cccc(Nc2ncnc3cc4c(cc23)OCCOCCOCCO4)c1 [Icotinib] (top concentration 10000 nM) | 2.9 |
| CN[C@@H](C)C(=O)N[C@H]1CN(C(=O)CC(C)C)CC[C@H]2CC[C@@H](C(=O)NC(c3ccccc3)c3ccccc3)N2C1=O [AT-406] (top concentration 10000 nM) | 0.34 |
| CC(C)(O)CC(=O)NCCn1ccc2ncnc(Nc3ccc(Oc4cccc(C(F)(F)F)c4)c(Cl)c3)c21 [TAK-285] (top concentration 2500 nM) | 0 |
| COc1cc(C)[nH]c(=O)c1CNC(=O)c1c(C)n([C@H](C)C2CCOCC2)c2ccccc12 [CPI-360] (top concentration 10000 nM) | 0 |
| Cc1cc2c(C(=O)NC[C@H](C)c3ccccc3)c(O)c(O)cc2c(O)c1-c1c(C)cc2c(C(=O)NC[C@H](C)c3ccccc3)c(O)c(O)cc2c1O [Sabutoclax] (top concentration 25000 nM) | 11.3 |
| CC(C)(C)C[C@@H]1N[C@@H](C(=O)N[C@H]2CC[C@H](O)CC2)[C@H](c2cccc(Cl)c2F)[C@]12C(=O)Nc1cc(Cl)ccc12 (top concentration 10000 nM) | 11.7 |
| C[C@@H]1C[C@H]2[C@@H]3CCC4=CC(=O)C=C[C@]4(C)[C@@]3(F)[C@@H](O)C[C@]2(C)[C@@]1(O)C(=O)CO [Dexamethasone] (top concentration 10000 nM) | 14.6 |

Tested on: LC4-1
Assay: as above
Settings: 72 h

| SMILES | selective drug sensitivity score |
| --- | --- |
| Nc1nc2cc(-c3ccc4ncc(C(=O)N5CCOCC5)n4c3)ccc2o1 [Serabelisib] (top concentration 10000 nM) | 0.86 |
| COc1cccc(-c2ccc(NC(=O)C3=C(C(=O)O)CCC3)c(F)c2)c1 [Vidofludimus] (top concentration 10000 nM) | 6.1 |
| Cc1cccc(-c2nn3c(c2-c2ccnc4ccc(C(N)=O)cc24)CCC3)n1 [Galunisertib] (top concentration 1000 nM) | 0 |
| COc1cc2c(N3CCN(C(=O)Nc4ccc(OC(C)C)cc4)CC3)ncnc2cc1OCCCN1CCCCC1 [Tandutinib] (top concentration 1000 nM) | 0 |
| Cc1c(F)cc(C(=O)NC2CC2)cc1-c1ccc(C(=O)NCC(C)(C)C)cn1 [Losmapimod] (top concentration 10000 nM) | 3.32 |
| Nc1nc(N)c2nc(-c3cccc(O)c3)c(-c3cccc(O)c3)nc2n1 [TG100-115] (top concentration 10000 nM) | 0.1 |
| C[C@]12CC[C@@H]3c4ccc(O)cc4C[C@@H](CCCCCCCCC[S+]([O-])CCCC(F)(F)C(F)(F)F)[C@H]3[C@@H]1CC[C@@H]2O (stereo not given in full) [Fulvestrant] (top concentration 1000 nM) | 0 |
| O=C(Nc1cccnc1)N1CCC(Cc2cccc(Oc3ccc(C(F)(F)F)cn3)c2)CC1 [PF-3845] (top concentration 10000 nM) | -0.54 |
| COc1cc2c(cc1OCCCN1CCCC1)N=C(N)C21CCC1 [A-366] (top concentration 25000 nM) | -1.24 |
| Oc1ncnc2[nH]ncc12 [Allopurinol] (top concentration 10000 nM) | 0.06 |
| CC(C)n1cnc2c(NCCc3ccc(O)cc3)nc(-c3csc4ccccc34)nc21 [StemRegenin_1] (top concentration 10000 nM) | -0.1 |
| C#Cc1cccc(Nc2ncnc3cc4c(cc23)OCCOCCOCCO4)c1 [Icotinib] (top concentration 10000 nM) | 3.2 |
| CN[C@@H](C)C(=O)N[C@H]1CN(C(=O)CC(C)C)CC[C@H]2CC[C@@H](C(=O)NC(c3ccccc3)c3ccccc3)N2C1=O [AT-406] (top concentration 10000 nM) | -1.26 |
| CC(C)(O)CC(=O)NCCn1ccc2ncnc(Nc3ccc(Oc4cccc(C(F)(F)F)c4)c(Cl)c3)c21 [TAK-285] (top concentration 2500 nM) | 0 |
| COc1cc(C)[nH]c(=O)c1CNC(=O)c1c(C)n([C@H](C)C2CCOCC2)c2ccccc12 [CPI-360] (top concentration 10000 nM) | 0 |
| Cc1cc2c(C(=O)NC[C@H](C)c3ccccc3)c(O)c(O)cc2c(O)c1-c1c(C)cc2c(C(=O)NC[C@H](C)c3ccccc3)c(O)c(O)cc2c1O [Sabutoclax] (top concentration 25000 nM) | 13.8 |
| CC(C)(C)C[C@@H]1N[C@@H](C(=O)N[C@H]2CC[C@H](O)CC2)[C@H](c2cccc(Cl)c2F)[C@]12C(=O)Nc1cc(Cl)ccc12 (top concentration 10000 nM) | 12.4 |
| C[C@@H]1C[C@H]2[C@@H]3CCC4=CC(=O)C=C[C@]4(C)[C@@]3(F)[C@@H](O)C[C@]2(C)[C@@]1(O)C(=O)CO [Dexamethasone] (top concentration 10000 nM) | 12.5 |
